The record followed here is US11382947B2, “Targeting G3BP proteins to accelerate nerve regeneration” (University of South Carolina, priority 2017, dated 2022).

Entries after “also recorded” stand apart in the source; their conditions may differ.

What all share (format): cell-based, rat
The subject of one assay is cortical neurons. As to the kind of experiment: Axon growth of cortical neurons in microfluidic devices, peptide applied to axonal compartment. Particulars: 10 μM peptide applied to axonal compartment at 3 DIV, assessed at 6 DIV; FIG. 11C. Here is the method: For cortical neuron cultures, E18 cortices were dissected in Hibernate E (BrainBits) and dissociated using the Neural Tissue Dissociation kit (Miltenyi Biotec). […] After washing and centrifugation, neurons were seeded at a density of 1×10^5 cells per poly-D-lysine-coated microfluidic device (Xona Microfluidics). NbActive-1 medium (BrainBits) supplemented with 100 U/ml of Penicillin-Streptomycin (Life Technologies), 2 mM L-Glutamine (Life Technologies), and 1×[…] supplement (R&D Systems) was used as culture medium. For peptide treatments, 10 μM Tat-fused peptides were added to dissociated DRG cultures at 2 or 12 h after plating. Neurite outgrowth was assessed 24 h after addition of peptides. For the cortical cultures, 10 μM peptide was applied to the axonal compartment at 3 d in vitro (DIV) and axonal growth was assessed at 6 DIV.

In assay [1] the test system is axonal mRNA translation in DRG neurons. As to the kind of experiment: FRAP of axonally targeted translation reporters in DRG neurons. Particulars: G3BP1-overexpressing DRGs, 10 μM peptide; FIG. 14C. As to the method: FRAP was used to test for axonal mRNA protein synthesis using diffusion-limited GFP^MYR and mCherry^MYR reporters as described with minor modifications. In each case, DRG neurons were co-transfected with […]+mCherry^MYR5'/3'gap43 or […]β1+mCherry^MYR5'/3'gap43 so that recovery of both reporters could be analyzed simultaneously. Cells were maintained at 37° C., 5% CO2 during imaging sequences. 488 nm and 514 nm laser lines on Leica SP8X confocal microscope were used to bleach GFP and mCherry signals, respectively (Argon laser at 70% power, pulsed every 0.82 sec for 80 frames). Pinhole was set to 3 Airy units to ensure full thickness bleaching and acquisition (63×/1.4 NA oil immersion objective). Prior to photobleaching, neurons were imaged every 60 sec for 2 min to acquire baseline fluorescence the region of interest (ROI; 15% laser power, 498-530 nm for GFP and 565-597 nm for mCherry emissions, respectively). The same excitation and emission parameters were used to assess recovery over 15 min post-bleach with images acquired at 30 sec intervals. To determine if fluorescence recovery in axons was from translation, cultures were treated with 150 μg/ml cycloheximide (Sigma) or 100 μM anisomycin (Sigma) for 30 min. prior to photobleaching for […]+mCherry^MYR5'/3'gap43 and […] transfected DRGs, respectively. For peptide treatments, G3BP1-mCh transfected DRG neurons were treated with 10 μM G3BP1 peptides after acquiring the baseline expression values. Photobleaching followed by analyses of recovery was performed after 30 min of peptide exposure. Fluorescent intensities in the ROIs were calculated by the Leica LASX software. For normalizing across experiments, fluorescence intensity value at t=0 min post-bleach from each image sequence was set as 0%. The percentage of fluorescence recovery at each time point after photobleaching was then calculated by normalizing relative to the pre-bleach fluorescence intensity (set at 100%).

Assay [2] relates to protein synthesis in DRG neurons. The assay is described as follows: Puromycinylation assay for newly synthesized proteins in DRG neurons. The note with it: peptide treatment, compared to control and 168-189 peptide, FIG. 12D. Here is the method: To visualize newly synthesized proteins in cultured neurons, the current disclosure used the Click-iT® Plus OPP Protein Synthesis Assay Kit per manufacturer's instructions (Invitrogen/Life Technologies). Briefly, 3 DIV cultures were incubated with 20 μM O-propargyl-puromycin (OPP) for 30 min at 37° C. OPP-labeled proteins were detected by crosslinking with Alexa Fluor-594 picolyl azide molecule. Coverslips were then mounted with Prolong Gold Antifade (Invitrogen) and imaged with Leica DMI6000 epifluorescent microscope as above. ImageJ was used to quantify the Puromycinylation signals in distal axons and cell bodies.

The test system of assay [3] is axonal G3BP1-mCh aggregates. The assay is described as follows: Live cell imaging of G3BP1-mCherry granules in DRG axons. As to the method:
DRG neurons were transfected with G3BP1-mCherry, and 36 h later distal axons were imaged using Leica SP8X confocal microscope with environmental chamber maintained at 37° C., 5% CO2 (with 63×/1.4 NA oil immersion objective). Confocal pinhole was set to 0.43 airy units. G3BP1-mCherry signals were imaged in axon shaft every 2 sec for 100 frames (at 540 nm excitation and 23% white light laser power; 565-597 nm emission). To study the effect of the G3BP1 190-208 peptide on the G3BP1-mCherry granules, 10 μM FITC-conjugated peptide was added to the media and 15 min later imaging was continued. For G3BP1-mCherry aggregates, a 100 μm of the axon shaft was considered (≥200 μm from cell body). Thresholding was applied to acquired image sequences using ImageJ to generate binary masks. ImageJ particle analyzer was used for analysis. G3BP1 aggregates with area of ≥1 μm2 were considered as SG-like structures. For analyzing the G3BP1 aggregate velocity, ImageJ […] plug-in was used.

Assay [4] has as its system DRG neurons. As to the kind of experiment: Axon growth of dissociated DRG neuron cultures treated with Tat-fused G3BP1 peptides. Here is the method:
For primary neuronal cultures, L4-5 DRG were harvested in Hybernate-A medium (BrainBits) and then dissociated as known to those of skill in the art. After centrifugation and washing in DMEM/F12 (Life Technologies), cells were resuspended in DMEM/F12, 1×N1 supplement (Sigma), 10% fetal bovine serum (Hyclone), and 10 μM cytosine arabinoside (Sigma). Dissociated DRGs were plated immediately on laminin/poly-L-lysine-coated coverslips or transfected (see below) and then plated on coated coverslips. […] Neurite outgrowth was assessed 24 h after addition of peptides. For the cortical cultures, 10 μM peptide was applied to the axonal compartment at 3 d in vitro (DIV) and axonal growth was assessed at 6 DIV. For neurite outgrowth, images from 60 h DRG cultures were analyzed for neurite outgrowth using WIS-Neuromath. Axon morphology was visualized using GFP and/or NF immunofluorescence as described.

In assay [5] the test system is DRG neurons. The assay is described as follows: Axon growth of DRG neurons transfected with G3BP1 constructs or siRNA. The note with it: siRNA-mediated knockdown, 100 nM siRNA vs. control siRNA; FIG. 15C. As to the method: For primary neuronal cultures, L4-5 DRG were harvested in Hybernate-A medium (BrainBits) and then dissociated as known to those of skill in the art. After centrifugation and washing in DMEM/F12 (Life Technologies), cells were resuspended in DMEM/F12, 1×N1 supplement (Sigma), 10% fetal bovine serum (Hyclone), and 10 μM cytosine arabinoside (Sigma). Dissociated DRGs were plated immediately on laminin/poly-L-lysine-coated coverslips or transfected (see below) and then plated on coated coverslips.
For DRG neuron transfection, dissociated ganglia were pelleted by centrifugation at 100×g for 5 min and resuspended in ‘nucleofector solution’ (Rat Neuron Nucleofector kit; Lonza). 5-7 μg plasmid was electroporated using an AMAXA Nucleofector apparatus (program SCN-8; Lonza). For siRNA transfection, 100 nM siRNAs (Dharmacon) were used with DharmaFECT 3 reagent and incubated for 36 h. G3BP1 siRNA sequence: 5′ […] 3′. Non-targeting siRNAs (siCon) were as control. RTddPCR was used to test the efficiency of depletion (see below). HEK293T cells were transfected using Lipofectamine® 2000 per manufacturer's instructions (Invitrogen). AAV5 preparations were titrated in DRG cultures by incubating with […] particles of AAV5 overnight.
For neurite outgrowth, images from 60 h DRG cultures were analyzed for neurite outgrowth using WIS-Neuromath. […]

Setting [6] is: 10 μM peptide added to DRG cultures immediately after plating, FIG. 16B.

For “Tvr Glv Asn Lvs Lvs Asn Asn Asn Gln Asn Asn Asn Val Val Glu Pro Glu Pro Glu Pro Glu Pro Glu Pro Glu Pro Glu Pro Val Ser [190-208 peptide]”, in the assay with cortical neurons, the axon growth entry is given as “significant increase in axon growth; also recorded: significantly increased axon growth”. Moreover, in assay [1], the “axonal translation of GFPMYR5′/3′impβ1 mRNA” value is reported as “did not affect translation”, the “axonal translation of GFPMYR5′/3′nrn1 mRNA” value was “significantly rescued axonal translation” and the “axonal translation of mChMYR5′/3′gap43 mRNA” value is “did not affect translation”. In addition, in assay [2] (listed as 190-208 G3BP1 peptide), the “axonal protein synthesis (Puro incorporation in DRG axons)” value is listed as “significantly increased”. Further, in assay [2] (listed as G3BP1 190-208 peptide), the “axonal protein synthesis (Puro incorporation in DRG axons)” value is on record as “increased axonal protein synthesis”. The “axonal G3BP1-mCh aggregates (density along 100 μm axon)” value in assay [3] (10 μM peptide, within 15 min, FIG. 12G) is listed as “striking decrease”. Moreover, the “size of remaining SG-like structures in axons” value in assay [3] (after 10 μM peptide treatment, 15 min, FIG. 12H) is “significantly smaller”. Besides, in assay [3] (after peptide treatment vs. control conditions), the “motility of remaining aggregates” value is on record as “greater motility”. In addition, in the assay with DRG neurons [4] (setting [6]), the axon length entry is on record as “increased axon length” and the “number of neurites per neuron” value is reported as “increased number of neurites per neuron”. In addition, the axon length entry with DRG neurons [4] (7 d injury-conditioned (pre-injured) DRG neurons, peptide added at 12 h, assessed at 36 h, FIG. 11C) is reported as “significantly increased axon length; also recorded: effectively increase axon growth”. Besides, the axon length entry in the assay on DRG neurons [4] (naive DRG neurons, delayed application, peptide added at 12 h, assessed at 36 h, FIG. 11C) is reported as “significantly increased axon length; also recorded: effectively increase axon growth”.

Take “Glu Glu Ser Glu Glu Glu Val Glu Glu Pro Glu Glu Arg Gln Gln Ser Pro Glu Val Val Tvr Glv Asn Lvs Lvs Asn Asn Gln Asn Asn Asn [147-166 peptide]”: the axon length result in the assay on DRG neurons [4] (setting [6]) is recorded as “increased axon length”.

Regarding “5′ ccacauaggagcugggaauuu 3′ [G3BP1 siRNA]”, the axon growth result with DRG neurons [5] is recorded as “significantly increased axon growth”.
